Laboratory results published in ChEMBL document CHEMBL6071200, “Discovery of Ring-Annulated Analogues of Cannabidiol as Potential Anticancer Agents: Synthesis and Biological Evaluation” (ACS Med Chem Lett, 2024).
Converted amounts (≈) assume the structure as drawn. The source made the active and inactive calls. The calls are words filed in the database; no cut-off is given here.

How the values were obtained:
[1] = test system: MCF7; experiment: Anticancer activity against human MCF7 cells assessed as effect on cell viability by SRB assay; format: functional, cell-based
[2] = test system: HCT-116; experiment: Cytotoxicity against human HCT-116 cells assessed as inhibition of cell growth at 20 uM incubated for 48 hrs by SRB assay relative to control; format: functional
[3] = test system: MCF7; experiment: Cytotoxicity against human MCF7 cells assessed as inhibition of cell growth at 20 uM incubated for 48 hrs by SRB assay relative to control; format: functional
[4] = test system: Jurkat; experiment: Anticancer activity against human Jurkat cells; format: functional, cell-based
[5] = test system: Raji; experiment: Anticancer activity against human Raji cells; format: functional, cell-based
[6] = test system: MCF7; experiment: Induction of mitochondrial membrane loss in human MCF7 cells assessed as fold change at 5.3 uM incubated for 24 hrs by Mitotracker dye based flow cytometric analysis relative to control; format: functional
[7] = test system: MCF7; experiment: Anticancer activity against human MCF7 cells assessed as reduction in cell viability at 5.3 uM preincubated with capsazepine for 1 hrs followed by compound addition and measured after 48 hrs by SRB assay; format: functional, cell-based
[8] = Selectivity index, ratio of IC50 for HEK293 cells to IC50 for human HCT-116 cells; format: toxicity; conditions: HEK293 cells versus HCT-116 cells, read-out: Ratio IC50
[9] = test system: MCF7; experiment: Anticancer activity against human MCF7 cells assessed as reduction in cell viability at 5.3 uM preincubated with GW9662 for 1 hrs followed by compound addition and measured after 48 hrs by SRB assay; format: functional, cell-based
[10] = Cytotoxicity against human HEK293 cells assessed as inhibition of cell growth incubated for 48 hrs by SRB assay; format: toxicity, cell-based
[11] = Metabolic stability in mouse liver assessed as intrinsic clearance at 5 uM measured upto 30 mins in presence of NADPH by LC-MS/MS analysis; format: ADME, tissue-based; conditions: read-out: CLH
[12] = molecular target: Cytochrome P450 1A2 (Homo sapiens, UniProt P05177); experiment: Inhibition of CYP1A2 in human liver microsomes using […] substrate at 1 to 10 uM in presence of NADPH by LC-MS/MS analysis; format: ADME, Microsome; conditions: dose 1-10 µM
Chain of Cytochrome P450 1A2 (P05177 whole entry): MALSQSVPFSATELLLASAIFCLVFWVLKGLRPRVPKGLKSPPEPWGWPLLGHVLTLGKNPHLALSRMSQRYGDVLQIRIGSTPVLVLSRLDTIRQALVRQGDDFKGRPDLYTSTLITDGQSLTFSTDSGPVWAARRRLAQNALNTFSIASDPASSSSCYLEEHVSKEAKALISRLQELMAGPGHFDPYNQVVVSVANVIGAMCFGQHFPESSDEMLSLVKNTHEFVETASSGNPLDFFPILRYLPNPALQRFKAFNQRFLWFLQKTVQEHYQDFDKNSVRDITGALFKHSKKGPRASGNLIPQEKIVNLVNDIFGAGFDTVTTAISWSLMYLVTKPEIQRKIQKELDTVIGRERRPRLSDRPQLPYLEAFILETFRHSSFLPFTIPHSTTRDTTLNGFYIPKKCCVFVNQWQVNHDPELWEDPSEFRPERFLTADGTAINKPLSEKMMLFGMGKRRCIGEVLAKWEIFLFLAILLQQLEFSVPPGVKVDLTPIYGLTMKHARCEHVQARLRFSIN

[13] = Solubility of compound in SIF by UV absorbance based analysis; format: physicochemical
[14] = Metabolic stability in mouse liver microsomes assessed as hepatic extraction ratio at 5 uM measured upto 30 mins in presence of NADPH by LC-MS/MS analysis; format: ADME, Microsome; conditions: read-out: ERH
[15] = test system: MCF7; experiment: Induction of ROS production in human MCF7 cells assessed as DCFDA intensity at 5.3 uM incubated for 24 hrs by flow cytometric analysis (reference value: 0.95 %); format: functional
[16] = test system: MCF7; experiment: Cytotoxicity against human MCF7 cells assessed as inhibition of cell growth incubated for 48 hrs by SRB assay; format: functional, cell-based; conditions: MCF7, 48 h
[17] = test system: MCF7; experiment: Inhibition of colony formation in human MCF7 cells assessed as reduction in number of colonies at subtoxic doses measured after 48 hrs by crystal violet staining based analysis; format: functional, cell-based
[18] = Solubility of compound in water by UV absorbance based analysis; format: physicochemical
[19] = Metabolic stability in mouse liver microsomes assessed as half-life at 5 uM measured upto 30 mins in presence of NADPH by LC-MS/MS analysis; format: ADME, Microsome
[20] = Metabolic stability in human liver microsomes assessed as hepatic extraction ratio at 5 uM measured upto 30 mins in presence of NADPH by LC-MS/MS analysis; format: ADME, Microsome; conditions: read-out: ERH
[21] = test system: MCF7; experiment: Induction of apoptosis in human MCF7 cells assessed as early apoptotic cells at 5.3 uM incubated for 24 hrs by Annexin V-FITC/PI staining based flow cytometric analysis (reference value: 2.93 %); format: functional
[22] = Solubility of compound in SGF by UV absorbance based analysis; format: physicochemical
[23] = molecular target: Cytochrome P450 2C19 (Homo sapiens, UniProt P33261); experiment: Inhibition of CYP2C19 in human liver microsomes using S-mephenytoin substrate at 1 to 10 uM in presence of NADPH by LC-MS/MS analysis; format: ADME, Microsome; conditions: dose 1-10 µM
Chain of Cytochrome P450 2C19 (P33261 whole entry): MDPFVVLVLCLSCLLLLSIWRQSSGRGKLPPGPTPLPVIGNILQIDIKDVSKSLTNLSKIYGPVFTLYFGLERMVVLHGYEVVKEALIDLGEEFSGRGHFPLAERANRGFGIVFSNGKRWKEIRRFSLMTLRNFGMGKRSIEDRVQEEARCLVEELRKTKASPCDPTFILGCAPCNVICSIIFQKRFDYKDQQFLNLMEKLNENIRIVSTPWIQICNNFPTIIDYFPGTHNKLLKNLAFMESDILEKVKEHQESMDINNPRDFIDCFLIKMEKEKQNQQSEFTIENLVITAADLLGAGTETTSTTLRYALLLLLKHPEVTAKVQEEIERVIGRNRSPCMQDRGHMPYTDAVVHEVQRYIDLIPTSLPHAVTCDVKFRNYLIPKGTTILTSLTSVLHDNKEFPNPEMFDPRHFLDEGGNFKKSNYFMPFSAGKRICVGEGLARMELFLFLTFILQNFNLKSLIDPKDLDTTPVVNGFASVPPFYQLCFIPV

[24] = test system: HCT-116; experiment: Cytotoxicity against human HCT-116 cells assessed as inhibition of cell growth incubated for 48 hrs by SRB assay; format: functional, cell-based; conditions: HCT-116, 48 h
[25] = test system: MCF7; experiment: Induction of apoptosis in human MCF7 cells assessed as late apoptotic cells at 5.3 uM incubated for 24 hrs by Annexin V-FITC/PI staining based flow cytometric analysis (reference value: 4.85 %); format: functional
[26] = Metabolic stability in human liver microsomes assessed as intrinsic clearance at 5 uM measured upto 30 mins per mg protein in presence of NADPH by LC-MS/MS analysis; format: ADME, Microsome; conditions: read-out: CLH
[27] = test system: MCF7; experiment: Cell cycle arrest in human MCF7 cells assessed as accumulation of cells at G2/M phase at 5.3 uM incubated for 24 hrs by PI staining based flow cytometric analysis (reference value: 13.7 %); format: functional
[28] = Metabolic stability in mouse liver microsomes assessed as intrinsic clearance at 5 uM measured upto 30 mins per mg protein in presence of NADPH by LC-MS/MS analysis; format: ADME, Microsome; conditions: read-out: CLH
[29] = test system: MCF7; experiment: Induction of apoptosis in human MCF7 cells assessed as necrotic cells at 5.3 uM incubated for 24 hrs by Annexin V-FITC/PI staining based flow cytometric analysis (reference value: 4.02 %); format: functional
[30] = Metabolic stability in human liver microsomes assessed as half-life at 5 uM measured upto 30 mins in presence of NADPH by LC-MS/MS analysis; format: ADME, Microsome
[31] = test system: MCF7; experiment: Cell cycle arrest in human MCF7 cells assessed as accumulation of cells at G1 phase at 5.3 uM incubated for 24 hrs by PI staining based flow cytometric analysis (reference value: 63.9 %); format: functional
[32] = test system: MCF7; experiment: Induction of apoptosis in human MCF7 cells assessed as viable cells at 5.3 uM incubated for 24 hrs by Annexin V-FITC/PI staining based flow cytometric analysis (reference value: 88.20 %); format: functional; conditions: read-out: Activity
[33] = test system: MCF7; experiment: Anticancer activity against human MCF7 cells assessed as reduction in cell viability at 5.3 uM preincubated with SR144528 for 1 hrs followed by compound addition and measured after 48 hrs by SRB assay; format: functional, cell-based
[34] = test system: MCF7; experiment: Anticancer activity against human MCF7 cells assessed as reduction in cell viability at 5.3 uM preincubated with ML-193 for 1 hrs followed by compound addition and measured after 48 hrs by SRB assay; format: functional, cell-based
[35] = test system: MCF7; experiment: Cell cycle arrest in human MCF7 cells assessed as accumulation of cells at S phase at 5.3 uM incubated for 24 hrs by PI staining based flow cytometric analysis (reference value: 22.93 %); format: functional
[36] = test system: MCF7; experiment: Anticancer activity against human MCF7 cells assessed as reduction in cell viability at 5.3 uM preincubated with LY320135 for 1 hrs followed by compound addition and measured after 48 hrs by SRB assay; format: functional, cell-based
[37] = Permeability of compound at 100 uM incubated for 16 hrs by PAMPA-BBB assay; format: ADME
[38] = Selectivity index, ratio of IC50 for HEK293 cells to IC50 for human MCF7 cells; format: toxicity; conditions: HEK293 cells versus MCF7 cells, read-out: Ratio IC50
[39] = test system: MCF7; experiment: Anticancer activity against human MCF7 cells assessed as reduction in cell viability at 5.3 uM incubated for 48 hrs by SRB assay relative to control; format: functional
[40] = Metabolic stability in human liver assessed as intrinsic clearance at 5 uM measured upto 30 mins in presence of NADPH by LC-MS/MS analysis; format: ADME, tissue-based; conditions: read-out: CLH
[41] = test system: NCI-H226; experiment: Anticancer activity against human NCI-H226 cells; format: functional, cell-based
[42] = Anticancer activity against mouse NIH3T3 cells; format: toxicity, cell-based
[43] = test system: DU-145; experiment: Anticancer activity against human DU-145 cells; format: functional, cell-based
[44] = test system: HT-29; experiment: Anticancer activity against human HT-29 cells; format: functional, cell-based
[45] = test system: MCF7; experiment: Anticancer activity against human MCF7 cells; format: functional, cell-based
[46] = test system: SNB-19; experiment: Anticancer activity against human SNB-19 cells; format: functional, cell-based

## O=C(Nc1ccccc1)c1cc([N+](=O)[O-])ccc1Cl
[1]
  Activity: inactive

## Oc1cc2c(cc1O)CN(C(=S)NCCc1ccc(Cl)cc1)CCC2
[1]
  Activity: inactive

## C=C(C)[C@@H]1CCC(C)=C[C@H]1c1c2c(c(CCCCC)c3c1OCN(CCCC)C3)CN(CCCC)CO2
[2]
  inhibition at 20 µM: 0%
[3]
  inhibition at 20 µM: 0%

## C=C(C)[C@@H]1CCC(C)=C[C@H]1c1c(O)cc(CCCCC)c2c1OCN(Cc1ccccc1)C2
[2]
  inhibition at 20 µM: 52.3%
[3]
  inhibition at 20 µM: 46.5%

## C=C(C)[C@@H]1CCC(C)=C[C@H]1c1c(O)cc(CCCCC)c2c1OCN(c1cnc3ccccc3c1)C2
[2]
  inhibition at 20 µM: 18%
[3]
  inhibition at 20 µM: 0%

## CCCCCC1=CC(=O)C([C@@H]2C=C(C)CC[C@H]2C(C)C)=C(O)C1=O
[4]
  IC50: 154 nM
[5]
  IC50: 154 nM

## C=C(C)[C@@H]1CCC(C)=C[C@H]1c1c(O)cc(CCCCC)c2c1OCN(c1ccc(OC(F)(F)F)cc1)C2
[2]
  inhibition at 20 µM: 0%
[3]
  inhibition at 20 µM: 0%

## C=C(C)[C@@H]1CCC(C)=C[C@H]1c1c(O)cc(CCCCC)c2c1OCN(CCCC)C2
[6]
  fold change (FC): 4.3
[7]
  Activity: Active
[8]
  selectivity ratio: 8.8
[9]
  Activity: Active
[10]
  IC50 at 48 h: 37100 nM
[11]
  CLint scaled at 5 µM: 182 mL/min/kg
[12]
  inhibition (INH): Active
[13]
  solubility: 80 µg/mL (≈ 194 µM)
[14]
  hepatic extraction ratio at 0.5 h, 5 µM: 0.67
[15]
  Activity: 12.05%
[16]
  IC50: 5300 nM
[2]
  inhibition at 20 µM: 82.6%
[17]
  inhibition: Active
[18]
  solubility: 80 µg/mL (≈ 194 µM)
[19]
  half-life at 5 µM: 31 min
[20]
  hepatic extraction ratio at 0.5 h, 5 µM: 0.71
[21]
  Activity: 8.93%
[22]
  solubility: > 1500 µg/mL
[23]
  inhibition (INH): Active
[24]
  IC50: 4200 nM
[25]
  Activity: 15.07%
[26]
  microsomal CLint at 5 µM: 44 µL/min/mg
[27]
  Activity: 8.8%
[28]
  microsomal CLint at 5 µM: 46 µL/min/mg
[29]
  Activity: 9.86%
[30]
  half-life at 5 µM: 32 min
[3]
  inhibition at 20 µM: 85.3%
[31]
  Activity: 75.72%
[32]
  viability at 5.3 µM: 66.1%
[33]
  Activity: Active
[34]
  Activity: Active
[35]
  Activity: 15.48%
[36]
  Activity: Active
[37]
  permeability: Permeable
[38]
  selectivity ratio: 7
[39]
  Activity: 46.45%
[40]
  CLint scaled at 5 µM: 51 mL/min/kg

## C=C(C)[C@@H]1CCC(C)=C[C@H]1c1c(O)cc(CCCCC)c2c1OCN(CCC)C2
[8]
  selectivity ratio: 2.9
[10]
  IC50 at 48 h: 21800 nM
[16]
  IC50: 6100 nM
[2]
  inhibition at 20 µM: 62.8%
[24]
  IC50: 7300 nM
[3]
  inhibition at 20 µM: 82.4%
[38]
  selectivity ratio: 3.5

## C=C(C)[C@@H]1CCC(C)=C[C@H]1C1=C(O)C(=O)C(CCCCC)=C(C)C1=O
[41]
  IC50: 449 nM
[42]
  IC50: 449 nM
[43]
  IC50: 449 nM
[44]
  IC50: 449 nM
[4]
  IC50: 449 nM
[5]
  IC50: 449 nM
[45]
  IC50: 449 nM
[46]
  IC50: 449 nM

## Cc1ccc(Cn2nc(C(=O)N[C@@H]3C(C)(C)[C@@H]4CC[C@@]3(C)C4)cc2-c2ccc(Cl)c(C)c2)cc1
[1]
  Activity: inactive

## C=C(C)[C@@H]1CCC(C)=C[C@H]1c1c(O)cc(CCCCC)c2c1OCN(C)C2
[8]
  selectivity ratio: 1.1
[10]
  IC50 at 48 h: 12400 nM
[16]
  IC50: 7700 nM
[2]
  inhibition at 20 µM: 56.3%
[24]
  IC50: 11700 nM
[3]
  inhibition at 20 µM: 85.3%
[38]
  selectivity ratio: 1.6
